This is an account of results in patent US20110212943A1, “NOVEL BRIDGED CYCLIC COMPOUNDS AS HISTONE DEACETYLASE INHIBITORS” (ORCHID RESEARCH LABORATORIES LIMITED, priority 2008, published 2011).

The GI50 is the concentration that inhibits growth by half. As usually defined, the IC50 is the concentration at which inhibition is half-maximal. Read a low IC50 as higher potency.

Test [1] has as its system HCT 116 (colon), NCIH460 (lung) and U251 (glioma) cell lines. The test can be described thus: Anti-cancer screen (MTT growth inhibition). Format: cell-based. The note with it: mean over HCT 116, NCIH460 and U251 cell lines, 48 hours of incubation. Here is the method:
Experimental drugs were screened for anti-cancer activity in three cell lines using five concentrations for each compound. The cell lines—HCT 116 (colon), NCIH460 (lung) and U251 (glioma) were maintained in DMEM containing 10% fetal bovine serum. 96-well microtiter plates are inoculated with cells in 100 μL of cell suspension (5×10^4 cells/mL) for 24 hours at 37° C., 5% CO2, 95% air and 100% relative humidity. A separate plate with these cell lines is also inoculated to determine cell viability before the addition of the compounds (T0)
Following 24-hour incubation, test compounds were added to the 96 well plates. Each plate contains one of the above cell lines and the following samples in triplicate: five different dilutions (0.01, 0.1, 1, 10 and 100 μM) of four test compounds, appropriate dilutions of a cytotoxic standard and growth medium (untreated) wells. Test compounds were dissolved in DMSO to prepare 20 mM stock solutions on the day of drug addition and serial dilutions were carried out in complete growth medium at 2× strength such that 100 μL added to wells gave final concentrations (0.01, 0.1, 1, 10 and 100 μM) in the well. SAHA was used as standard drug in these experiments.
For T0 measurement, 24 hours after seeding the cells, 20 μL of 3-(4,5-dimethyl-2-thiazolyl)-2,5-diphenyl-2H-tetrazolium (MIT) solution per well was added to the ‘T0’ plate and incubated for 3 hours at 37° C. in a CO2 incubator. The plate containing cells and test compounds was treated similarly after 48 hours of incubation. After 3 hours of MTT addition, well contents were aspirated carefully followed by addition of 150 μL DMSO per well. Plates were agitated to ensure dissolution of the formazan crystals in DMSO and absorbance was read at 570 nm (A570).
Percent growth (PG) is calculated relative to the control and zero measurement wells (T0) as follows:
(Mosmann T. Rapid colorimetric assay for cellular growth and survival: application to proliferation and cytotoxicity assays. (J. Immunol. Methods. 1983, 65 (1-2), 55-63; Anne Monks et al). Feasibility of high-flux anticancer drug screen using a diverse panel of cultured human tumor cell lines”. (JNCI, Vol. 83, No. 11, 1991, 757-766).

Test [2] addresses HDAC (Mouse Liver Extract). The test can be described thus: Histone Deacetylase (HDAC) Inhibition Assay using Boc-Lys (Ac)-AMC Substrate. It counts as biochemical. Conditions: Mouse liver enzyme, 30 minutes at 37° C. The procedure:
Histone Deacetylase (HDAC) Inhibition Assay using Boc-Lys (Ac)-AMC Substrate: Inhibition of HDAC has been implicated to modulate transcription and to induce apoptosis or differentiation in cancer cells. The fluorometric assay provides a fast and fluorescence based method that eliminates radioactivity, extractions or chromatography, as used in traditional assays. The assay is based on two steps. First, the HDAC fluorometric substrate, which comprises an acetylated lysine side chain, is incubated with a sample containing HDAC activity (Mouse Liver Extract). Deacetylation of the substrate sensitizes the substrate, in the second step; treatment with the Trypsin stop solution produces a fluorophore that can be easily analyzed using fluorescence plate reader.
Assay was done in 96-well black microplate and total volume of the assay was 100 μL. Mouse liver enzyme (10 mg/mL) was diluted 1:6 with HDAC buffer. Enzyme cocktail was made of 10 μL of diluted enzyme and 30 μL of HDAC buffer. 40 μL of enzyme cocktail followed by 10 μL of test compound (1 μM and 10 μM) or buffer (control) was added to each well. The plate was pre-incubated at 37° C. for 5 minutes. The HDAC reaction was started by adding 50 μL of HDAC substrate Boc-Lys (Ac)-AMC (Bachem AG, Switzerland). The plate was incubated at 37° C. for 30 minutes. The reaction was stopped by adding 100 μL of Trypsin stop solution and incubating at 37° C. for 15-30 minutes. Measuring the fluorescence at excitation wavelength of 360 nm and emission wavelength of 460 nm monitored the release of AMC. Buffer alone and substrate alone served as blank.

In test [1], `O=C(/C=C/c1ccc(CNC2C3CC4CC2CC(O)(C4)C3)cc1)NO` (stereo not shown) [Example 16, (2E)-N-hydroxy-3-(4-{[(5-hydroxyadamant-2-yl)amino]methyl}phenyl)acrylamide] returned a GI50 of 400 nM. The IC50 in test [2] worked out at 160 nM.
On the same counts, the results for `O=C(/C=C/c1ccc(CNC2C3CC4CC(C3)CC2C4)cc1)NO` (stereo not shown) [Example 15, (2E)-3-{4-[(adamant-2-ylamino)methyl]phenyl}-N-hydroxyacrylamide] are 150 nM and 60 nM.
For `O=C(/C=C/c1ccc(CNCC23CC4CC(CC(O)(C4)C2)C3)cc1)NO` [Example 11, (2E)-N-hydroxy-3-[4-({[(3-hydroxyadamant-1-yl)methyl]amino}methyl)phenyl]acrylamide], in that order: 100 nM and 9.06 nM.
For `O=C(/C=C/c1ccc(CN2CC3CC4CC(C3)CC2C4)cc1)NO` [Example 6, (2E)-3-[4-(4-azatricyclo[4.3.1.1^3,8]undec-4-ylmethyl)phenyl]-N-hydroxyacrylamide], in that order: 2800 nM and 110 nM.
In turn, `CCOC12CC3CC(CC(NCc4ccc(/C=C/C(=O)NO)cc4)(C3)C1)C2` [Example 4, (2E)-N-hydroxy-3-(4-{[(3-ethoxyadamant-1-yl)amino]methyl}phenyl)acrylamide] returned a GI50 in test [1] of 3300 nM. The molecule further registered an IC50 in test [2] of 460 nM.
On the same counts, the results for `O=C(/C=C/c1ccc(CNC23CC4CC(CC(CO)(C4)C2)C3)cc1)NO` [Example 9, (2E)-3-(4-{[(3-hydroxymethyladamant-1-yl)amino]methyl}phenyl)-N-hydroxy acrylamide] are 6100 nM and 240 nM.
For `O=C(/C=C/c1ccc(CNCC(=O)NC23CC4CC(CC(C4)C2)C3)cc1)NO` [Example 28, (2E)-3-[4-({[2-(adamant-1-ylamino)-2-oxoethyl]amino}methyl)phenyl]-N-hydroxyacrylamide], in that order: 4400 nM and 80 nM.
On the same counts, the results for `O=C(/C=C/c1ccc(CNC(=O)CC23CC4CC(CC(C4)C2)C3)cc1)NO` [Example 23, (2E)-3-(4-{[(adamant-1-ylacetyl)amino]methyl}phenyl)-N-hydroxyacrylamide] are 180 nM and 1.8 nM.
With `O=C(C=C1C2CC3CC(C2)CC1C3)NCc1ccc(/C=C/C(=O)NO)cc1` [Example 21, (2E)-N-hydroxy-3-(4-{[(tricyclo[3.3.1.1^3,7]dec-2-ylideneacetyl)amino]methyl}phenyl)acrylamide], the GI50 in test [1] came to 2100 nM. The IC50 in test [2] turned out to be 43 nM.
Regarding `O=C(/C=C/c1ccc(CNCCC2C3CC4CC2CC(O)(C4)C3)cc1)NO` (stereo not shown) [Example 19, (2E)-N-hydroxy-3-[4-({[(5-hydroxyadamant-2-yl)ethyl]amino}methyl)phenyl]acrylamide], it took 220 nM to inhibit growth in test [1] by half (GI50). In test [2], this molecule had an IC50 of 28 nM.
`O=C(CCCCCCC(=O)Nc1ccccc1)NO` [SAHA, suberoylanilide hydroxamic acid, reference compound] gave a GI50 in test [1] of 1260 nM.
In test [1], `O=C(C=Cc1ccc(CNCCNC(=O)C23CC4CC(CC(C4)C2)C3)cc1)NO` [Example 29, N-[2-({4-[(1E)-3-(hydroxyamino)-3-oxoprop-1-en-1-yl]benzyl}amino)ethyl]adamantine-1-carboxamide] returned a GI50 of 200 nM. In test [2], this molecule gave an IC50 of 10.4 nM.
For `CC12CC3CC(C)(C1)CC(NCc1ccc(/C=C/C(=O)NO)cc1)(C3)C2` [Example 5, (2E)-3-(4-{[(3,5-dimethyladamant-1-yl)amino]methyl}phenyl)-N-hydroxyacrylamide], in that order: 1100 nM and 30 nM.
For `O=C(/C=C/c1ccc(CNC23CC4CC(C2)CC(c2ccccc2)(C4)C3)cc1)NO` [Example 8, (2E)-3-(4-{[(3-phenyladamant-1-yl)amino]methyl}phenyl)-N-hydroxyacrylamide], in that order: 3500 nM and 440 nM.
For `O=C(/C=C/c1ccc(CNC(=O)CC2C3CC4CC2CC(O)(C4)C3)cc1)NO` (stereo not shown) [Example 24, (2E)-N-hydroxy-3-[4-({[(5-hydroxyadamant-2-yl)acetyl]amino}methyl)phenyl]acrylamide], in that order: 4200 nM and 110 nM.
Molecule `O=C(/C=C/c1ccc(CNC23CC4CC(CC(C4)C2)C3)cc1)NO` [Example 1, (2E)-3-{4-[(adamant-1-ylamino)methyl]phenyl}-N-hydroxyacrylamide] gave a concentration for 50% growth inhibition (GI50) in test [1] of 1800 nM. Further, the IC50 in test [2] was 70 nM.
On the same counts, the results for `O=C(/C=C/c1ccc(CNC23CC4CC(CC(O)(C4)C2)C3)cc1)NO` [Example 2, (2E)-N-hydroxy-3-(4-{[(3-hydroxyadamant-1-yl)amino]methyl}phenyl)acrylamide] are 5100 nM and 250 nM.
On the same counts, the results for `O=C(/C=C/c1ccc(CNC23CC4CC(CC(Cl)(C4)C2)C3)cc1)NO` [Example 7, (2E)-3-(4-{[(3-chloroadamant-1-yl)amino]methyl}phenyl)-N-hydroxyacrylamide] are 9700 nM and 40 nM.
`Nc1ccccc1NC(=O)/C=C/c1ccc(CNC23CC4CC(CC(C4)C2)C3)cc1` [Example 12, (2E)-N-(2-aminophenyl)-3-{4-[(adamant-1-ylamino)methyl]phenyl}acrylamide]: the GI50 in test [1] was 7000 nM. The molecule further displayed an IC50 in test [2] of 4300 nM.
On the same counts, the results for `Nc1ccccc1NC(=O)/C=C/c1ccc(CNC23CC4CC(CC(O)(C4)C2)C3)cc1` [Example 13, (2E)-N-(2-aminophenyl)-3-{4-[(3-hydroxyadamant-1-ylamino)methyl]phenyl}acrylamide] are 52000 nM and 5400 nM.
Turning to `O=C(/C=C/c1ccc(CNC(=O)CC2C3CC4CC(C3)CC2C4)cc1)NO` (stereo not shown) [Example 20, (2E)-N-hydroxy-3-(4-{[(adamantyl-2-ylacetyl)amino]methyl}phenyl)acrylamide], growth in test [1] was halved (GI50) at 1200 nM. For the same molecule, the midpoint of inhibition in test [2], the IC50, lay at 8 nM.
For `O=C(/C=C/c1ccc(CNCC23CC4CC(CC2C4)C3)cc1)NO` [Example 32, (2E)-N-hydroxy-3-(4-{[(tricyclo[3.3.1.0^3,7]non-3-ylmethyl)amino]methyl}phenyl)acrylamide], in that order: 10 nM and 0.385 nM.
On the same counts, the results for `COC12CC3CC(CC(NCc4ccc(/C=C/C(=O)NO)cc4)(C3)C1)C2` [Example 3, (2E)-N-hydroxy-3-(4-{[(3-methoxyadamant-1-yl)amino]methyl}phenyl)acrylamide] are 5200 nM and 260 nM.
For `O=C(/C=C/c1ccc(CNC(=O)C23CC4CC(CC(C4)C2)C3)cc1)NO` [Example 25, N-{4-[(1E)-3-(hydroxyamino)-3-oxoprop-1-en-1-yl]benzyl}adamantane-1-carboxamide], in that order: 100 nM and 67 nM.
Regarding `O=C(C=Cc1ccc(CNCCC2C3CC4CC(C3)CC2C4)cc1)NO` (stereo not shown) [Example 17, (2E)-N-hydroxy-3-[4-({[adamant-2-yl)ethyl]amino}methyl)phenyl]acrylamide], in test [1], it took 290 nM to inhibit growth by half (GI50). For the same molecule, the IC50 in test [2] amounted to 0.28 nM.
